Results taken from patent US7851508B2, “Natural product derivatives with antimalarial activity” (Radix Pharmaceuticals, Inc., priority 2008, dated 2010).
In brackets after ≈: the same amount, converted by molar mass. Where two headings read alike, the source gives them in different places.

Columns and labels:
[1] = system: P. falciparum malaria parasite clone D6 (chloroquine sensitive); test: In vitro anti-malarial activity, [3H]hypoxanthine uptake, D6 clone; type: cell-based, Plasmodium falciparum
From the text: (§1) For in vitro toxicological studies, the following cell line was chosen: human adult liver epithelial cells (THLE-3). THLE-3 cells express phenotypic characteristics of normal adult liver epithelial cells and constitute a valuable model for pharmacotoxicological studies.
(§2) Two P. falciparum malaria parasite clones, W2 and D6, from Malaria Research and Reference Reagent Resource Center (MR4), were utilized in susceptibility testing. […] Test compounds were initially dissolved in DMSO and diluted 400 fold in RPMI 1640 culture medium supplemented with 25 mM Hepes, 32 mM NaHCO3 and 10% Albumax I (Gibco, N.Y.). These solutions were subsequently serially diluted two-fold with a Beckman Biomek® 1000 Robot (Fullerton, Calif.) over 11 different concentrations. The parasites were exposed to serial dilutions of each compound for 48 hrs and incubated at 37° C. with 5% O2, 5% CO2 and 90% N2 prior to the addition of [^3H]hypoxanthine. After a further incubation of 18 hrs, parasite DNA was harvested from each microtiter well using Packard Filtermate™ 196 Harvester (Meriden, Conn.) onto glass filters. Uptake of [^3H]hypoxanthine was measured with a Packard TopCount Liquid Scintillation Counter (Packard Instrument Co.).

[2] = system: P. falciparum malaria parasite clone W2 (chloroquine resistant); test: In vitro anti-malarial activity, [3H]hypoxanthine uptake, W2 clone; type: cell-based, Plasmodium falciparum
From the text: as §1, §2

[3] = system: human adult liver epithelial cells (THLE-3); test: In vitro toxicity evaluation, Sulforhodamine B; type: cell-based; settings: for IC50: Homo sapiens, read-out: IC50 THLE-3; for Selectivity, IC50 (THLE-3)/IC50 (D6): ratio THLE-3 vs D6
Protocol: as §1
Human adult liver epithelial cells (THLE-3) was maintained in tissue culture flasks in Waymouth's medium (Gibco, N.Y.) supplemented with 10% fetal bovine serum. Toxicity tests were performed in 96-well tissue culture plates using the protein-binding dye Sulforhodamine B. Test compounds were serially diluted and added to empty wells of the 96-well plate. THLE-3 cells in their culture medium were immediately seeded into the wells. Solvent blanks (no compound) were run in each test. After 72 hours under culture conditions cells were fixed to the plate by layering 50% TCA (4° C.) over the growth media in each well to produce a final TCA concentration of 10%. After incubating for one hour at 4° C., cultures were washed five times with tap water and left air-dried. Wells were stained for 30 min. with 0.4% (w/v) SRB in 1% acetic acid and washed four times with 1% acetic acid. Cultures were left air-dried and bound dye was solubilized with 10 mM Tris base (pH 10.5) for 15 min. on a gyratory shaker at room temperature. A Spectra MAX Plus Microtiter Plate Reader (Molecular Devices, Menlo Park, Calif.) was used to measure the optical density at wavelengths of 490-530 nm.

[4] = system: P. berghei in mice; type: in vivo; settings: for toxicity in mice: highest dose tested; for toxicity in mice / blood schizonticidal activity, in words: oral
Protocol: Drugs were mixed in 0.5% hydroxycellulose 0.1% Tween 80 and administered orally b.i.d. on days 3, 4 and 5 postinfection. CD-1 male or female mice, 5 weeks of age, were infected with 5×10^4 parasitized erythrocytes of Plasmodium berghei KBG-173 mm strain. Blood films were taken on day +6 and weekly thereafter until day +60. Parasitemias were calculated and SD90 value (dose suppressing 90% of the parasites in treated groups compared with the infected non-treated controls) on day +6 postinfection. Mortality data was tabulated for 60 days at which time all mice surviving that were blood film negative were considered cured.
[…] The activity of these compounds were compared with the untreated control: In untreated controls, death occurs within 8-9 days. Compounds which are effective against Plasmodium berghei infection increase the mean survival time of the infected animals when compared with the untreated controls. Mice that survive after thirty days and are free of parasites in blood are considered cured.
Efficacy of the drug is determined by the number of cures at the end of a 30 day period and the increase in mean survival time over the control (ΔMST). The effect of the test drugs also could be determined by the reduction of the parasitemia (percentage of the red blood cells detected with the parasites) over the untreated control on day 6, one day after the treatment is completed. Both these methods yield virtually identical results. If the dose of test compounds are inadequate, after initial clearance, residual parasites will multiply and relapses will occur within thirty days.

[5] = system: P. berghei in mice; test: Suppressive blood schizontocidal test in mice, subcutaneous single dose; type: in vivo, Plasmodium berghei; settings: for Mice surviving 60 days/Mice infected and treated: 72 h after infection
Protocol: Mice were treated with a single dose of the compound administered subcutaneously 72 h after infection. Number of cures is the number of mice surviving, out of five, 60 days postinfection.

[6] = system: Plasmodium berghei KBG-173 in mice; test: Prophylactic test in mice, oral; type: in vivo; settings: for Mice infected and treated/Mice surviving day 60: oral; for protection from malaria (oral prophylactic activity): single dose of 0.5 mg/kg within 2 days pre-infection through 2 days post-infection
Protocol: Compounds were tested for oral prophylactic activity.
Drugs were mixed in 0.5% hydroxycellulose 0.1% Tween 80 and administered orally b.i.d. either on day 5, 4, 3, 2, or 1 prior to the infection or 1 or 2 days postinfection. CD-I male or female mice, 5 weeks of age, were infected with 5×10^4 parasitized erythrocytes of Plasmodium berghei KBG-173 mm strain. Blood films were taken on day +6 and weekly thereafter until day+30. […]

[7] = oral dose 0.25 mg/kg/day (total dose 0.75 mg/kg)
[8] = oral dose 1.0 mg/kg/day (total dose 3.0 mg/kg)
[9] = oral dose 4.0 mg/kg/day (total dose 12 mg/kg)
[10] = oral dose 16 mg/kg/day (total dose 48 mg/kg)
[11] = oral dose 64 mg/kg/day (total dose 192 mg/kg)
[12] = Plasmodium falciparum, D6; read-out: IC50 D6 Strain
[13] = Plasmodium falciparum, W2; read-out: IC50 W2 Strain
[14] = THLE3, THLE-3 cells, 72 hours, toxicity
[15] = subcutaneous single dose 1 mg/kg
[16] = subcutaneous single dose 2 mg/kg
[17] = subcutaneous single dose 4 mg/kg
[18] = subcutaneous single dose 8 mg/kg
[19] = subcutaneous single dose 16 mg/kg
[20] = subcutaneous single dose 32 mg/kg
[21] = subcutaneous single dose 64 mg/kg
[22] = subcutaneous single dose 128 mg/kg
[23] = day of treatment 1, dose 0.5 mg/kg
[24] = day of treatment 1, dose 2 mg/kg
[25] = day of treatment 1, dose 8 mg/kg
[26] = day of treatment 1, dose 32 mg/kg
[27] = day of treatment 2, dose 0.5 mg/kg
[28] = day of treatment 2, dose 2 mg/kg
[29] = day of treatment 2, dose 8 mg/kg
[30] = day of treatment 2, dose 32 mg/kg
[31] = day of treatment −1, dose 0.5 mg/kg
[32] = day of treatment −1, dose 2 mg/kg
[33] = day of treatment −1, dose 8 mg/kg
[34] = day of treatment −1, dose 32 mg/kg
[35] = day of treatment −2, dose 0.5 mg/kg
[36] = day of treatment −2, dose 2 mg/kg
[37] = day of treatment −2, dose 8 mg/kg
[38] = day of treatment −2, dose 32 mg/kg

Row | Structure (SMILES) | Selectivity, IC50 (THLE-3)/IC50 (D6) [3] | Mice surviving 60 days/Mice infected and treated [4, 7] | Mice surviving 60 days/Mice infected and treated [4, 8] | Mice surviving 60 days/Mice infected and treated [4, 9] | Mice surviving 60 days/Mice infected and treated [4, 10] | Mice surviving 60 days/Mice infected and treated [4, 11] | IC50 [1, 12] | inhibitory activity against chloroquine sensitive malaria strain (D-6), in words ([1]; in vitro) | IC50 [2, 13] | inhibitory activity against chloroquine resistant malaria strain (W-2), in words ([2]; in vitro) | IC50 [3, 14] | toxicity in mice [4] | blood schizonticidal activity, in words [4] | activity by the subcutaneous route of administration, in words [5] | Mice surviving 60 days/Mice infected and treated [5, 15] | Mice surviving 60 days/Mice infected and treated [5, 16] | Mice surviving 60 days/Mice infected and treated [5, 17] | Mice surviving 60 days/Mice infected and treated [5, 18] | Mice surviving 60 days/Mice infected and treated [5, 19] | Mice surviving 60 days/Mice infected and treated [5, 20] | also measured
1 | CCN(CC)CCCC(C)Nc1ccnc2cc(Cl)ccc12 (stereo not shown) [Chloroquine, reference compound] | 463 | 0/7 | 0/7 | 2/7 | 4/7 | 0/7 |  |  |  |  |  |  |  |  |  |  |  |  |  |  | IC50 ([1]; Plasmodium falciparum, D6, read-out: IC50 D6 Strain): 6.3 ng/mL (≈ 0.0197 µM); IC50 ([2]; Plasmodium falciparum, W2, read-out: IC50 W2 Strain): 108 ng/mL (≈ 0.338 µM); IC50 ([3]; THLE3, 72 h): 2920 ng/mL (≈ 9.13 µM)
2 | C=C[C@@H]1[C@H]2OCOC2[C@@]23CC24c2nc5ccc(OC)cc5cc2C(=O)N[C@H]4CN13 (stereo partly shown) [Formula II] | 7.0 × 10^4 | 7/7 | 7/7 | 7/7 | 7/7 | 7/7 | 0.29 ng/mL | equally potent inhibitory activity | 0.33 ng/mL | equally potent inhibitory activity | 18900 ng/mL | no mice showed toxicity | very active | excellent activity | 4/5 | 5/5 | 5/5 | 5/5 | 5/5 | 5/5 | Mice surviving 60 days/Mice infected and treated [5, 21]: 5/5; Mice surviving 60 days/Mice infected and treated [5, 22]: 5/5; Mice infected and treated/Mice surviving day 60 [6, 23]: 5/5; Mice infected and treated/Mice surviving day 60 [6, 24]: 5/5; Mice infected and treated/Mice surviving day 60 [6, 25]: 5/5; Mice infected and treated/Mice surviving day 60 [6, 26]: 5/5; Mice infected and treated/Mice surviving day 60 [6, 27]: 5/5; Mice infected and treated/Mice surviving day 60 [6, 28]: 5/5; Mice infected and treated/Mice surviving day 60 [6, 29]: 5/5; Mice infected and treated/Mice surviving day 60 [6, 30]: 5/5; Mice infected and treated/Mice surviving day 60 [6, 31]: 5/5; Mice infected and treated/Mice surviving day 60 [6, 32]: 5/5; Mice infected and treated/Mice surviving day 60 [6, 33]: 5/5; Mice infected and treated/Mice surviving day 60 [6, 34]: 5/5; Mice infected and treated/Mice surviving day 60 [6, 35]: 5/5; Mice infected and treated/Mice surviving day 60 [6, 36]: 5/5; Mice infected and treated/Mice surviving day 60 [6, 37]: 5/5; Mice infected and treated/Mice surviving day 60 [6, 38]: 5/5; protection from malaria (oral prophylactic activity) [6]: completely protected
3 | C=C[C@@H]1[C@@H](OC)[C@H](OC)[C@@]23CC24c2cc5cc(OC)ccc5nc2C(=O)N[C@H]4CN13 (stereo partly shown) [Formula I] | 4.1 × 10^4 | 7/7 | 7/7 | 7/7 | 7/7 | 7/7 | 0.47 ng/mL | equally potent inhibitory activity | 0.43 ng/mL | equally potent inhibitory activity | 19400 ng/mL | no mice showed toxicity | very active | excellent activity | 4/5 | 5/5 | 5/5 | 5/5 | 5/5 | 5/5 | Mice surviving 60 days/Mice infected and treated [5, 21]: 5/5; Mice surviving 60 days/Mice infected and treated [5, 22]: 5/5; Mice infected and treated/Mice surviving day 60 [6, 23]: 5/5; Mice infected and treated/Mice surviving day 60 [6, 24]: 5/5; Mice infected and treated/Mice surviving day 60 [6, 25]: 5/5; Mice infected and treated/Mice surviving day 60 [6, 26]: 5/5; Mice infected and treated/Mice surviving day 60 [6, 27]: 5/5; Mice infected and treated/Mice surviving day 60 [6, 28]: 5/5; Mice infected and treated/Mice surviving day 60 [6, 29]: 5/5; Mice infected and treated/Mice surviving day 60 [6, 30]: 5/5; Mice infected and treated/Mice surviving day 60 [6, 31]: 5/5; Mice infected and treated/Mice surviving day 60 [6, 32]: 5/5; Mice infected and treated/Mice surviving day 60 [6, 33]: 5/5; Mice infected and treated/Mice surviving day 60 [6, 34]: 5/5; Mice infected and treated/Mice surviving day 60 [6, 35]: 5/5; Mice infected and treated/Mice surviving day 60 [6, 36]: 5/5; Mice infected and treated/Mice surviving day 60 [6, 37]: 5/5; Mice infected and treated/Mice surviving day 60 [6, 38]: 5/5; protection from malaria (oral prophylactic activity) [6]: completely protected
4 | OC(c1cc(C(F)(F)F)nc2c(C(F)(F)F)cccc12)C1CCCCN1 (stereo not shown) [Mefloquine, reference compound] | 794 |  |  |  |  |  | 3.4 ng/mL (≈ 0.00899 µM) |  | 5.6 ng/mL (≈ 0.0148 µM) |  | 2700 ng/mL (≈ 7.14 µM) |  |  |  |  |  |  |  |  |  | 
